The text below walks through data of patent US4743611A, “Naphthalenylsulfonylimidazolidinediones and their thioxo analogs useful as aldose reductase inhibitors” (American Home Products Corp., priority 1987, dated 1988).

For orientation: inhibition means how much of the control response was suppressed. In general, ED50 refers to the dose at which the effect has come halfway, by size or by number of responders.

Assay [1] has as its target T1, aldose reductase (Bos taurus, UniProt P16116).
T1 construct: preparation of the enzyme from bovine lens; from tissue; host or cells: bovine lens
In words: in vitro inhibition of aldose reductase (enzyme from bovine lens, modified Hayman and Kinoshita procedure). The class given is biochemical. The conditions noted are these: read-out: % inhibition in vitro. The source says: In the present case the procedure of Hayman and Kinoshita was modified in that the final chromatography step was omitted in the preparation of the enzyme from bovine lens.

For assay [2], the target named is T2, aldose reductase (Rattus norvegicus, UniProt P07943).
T2 construct: diminish the accumulation of dulcitol in the lenses, sciatic nerves and diaphragm of rats fed galactose; from tissue; host or cells: lens, sciatic nerve and diaphragm of living male Sprague-Dawley rats
In words: lowering of dulcitol accumulation in vivo in lens, sciatic nerve and diaphragm of galactosemic rats. Further details: species or system rat (Sprague-Dawley). The following applies: for ED50: po, 96 h. The source says: Such experiments are exemplified hereinbelow after the listing of the following general comments pertaining to these experiments:
(a) Four or more groups of six male rats, 50-70 g, Sprague-Dawley strain, were used. The first group, the control group, was fed a mixture of laboratory chow (rodent Laboratory Chow, Purina) and glucose at 20% (w/w %) concentration. The untreated galactosemic group was fed a similar diet in which galactose is substituted for glucose. The third group was fed a diet prepared by mixing a given amount of the test compound with the galactose containing diet. The concentration of galactose in the diet of the treated groups was the same as that for the untreated galactosemic group.
(b) After four days, the animals were killed by decapitation. The eyeballs were removed and punctured with a razor blade; the freed lenses were rolled gently on filter paper and weighed. The sciatic nerves were dissected as completely as possible and weighed. Both tissues when frozen can be kept up to two weeks before being analyzed for dulcitol.
Only two minor reagent changes were made: (a) The rinsing mixture was an aqueous 5% (w/v) trichloroacetic acid solution and (b) the stock solution was prepared by dissolving 25 mg of dulcitol in 100 ml of an aqueous trichloroacetic acid solution. [N.B.: For each experiment the average value found in the tissue from rats fed the glucose diet was subtracted from the individual values found in the corresponding tissue in galactose-fed rats to obtain the amount of polyol accumulated.]
The figures under L, N and D represent the percentage decrease of dulcitol accumulation in the tissues of the lens, sciatic nerve and diaphragm, respectively, for treated rats as compared to untreated rats.

[3] abbreviates: diaphragm, 24 mg/kg/day in diet.
Setting [4] is: rat, diaphragm, read-out: ED50, lowering dulcitol accumulation in vivo, D.
The mark [5] stands for this setting: rat, sciatic nerve, read-out: ED50, lowering dulcitol accumulation in vivo, N.
Where [6] appears, read: diaphragm, 23 mg/kg/day in diet.

Molecules are shown by their SMILES. Where two headings read alike, the source gives them in different places.

In the case of `O=C1CN(S(=O)(=O)c2cccc3c(Br)cccc23)C(=S)N1` [Example 1, 1-[(5-Bromo-1-naphthalenyl)sulfonyl]-2-thioxo-4-imidazolidinone], in assay [1] (10^-5), the inhibition at 10 µM stood at 67%. Moreover, in assay [1] (10^-6), the inhibition at 1 µM came to 17%. Moreover, the “% lowering dulcitol accumulation in vivo, D” value turned out to be 61% in assay [2] (setting [3]); 64% in assay [2] (diaphragm, 48 mg/kg/day in diet, p < 0.01); 86% in assay [2] (diaphragm, 109 mg/kg/day in diet). Besides, the “% lowering dulcitol accumulation in vivo, L” value in assay [2] (lens, 24 mg/kg/day in diet) came to 24%; in assay [2] (lens, 48 mg/kg/day in diet, p < 0.01) it was 40%; in assay [2] (lens, 109 mg/kg/day in diet), 49%. In addition, the ED50 in assay [2] (setting [4]) was found to be 18 mg/kg; in assay [2] (rat, lens, read-out: ED50, lowering dulcitol accumulation in vivo, L) it was 99 mg/kg; in assay [2] (setting [5]), 22 mg/kg.

Regarding `O=C1CN(S(=O)(=O)c2cccc3c(Br)cccc23)C(=O)N1` [Example 2, 1-[(5-Bromo-1-naphthalenyl)sulfonyl]-2,4-imidazolidinedione], in assay [1] (10^-5), the inhibition at 10 µM came to 93%. Moreover, in assay [1] (10^-6), the inhibition at 1 µM worked out at 89%. Also, in assay [1] (10^-7), the inhibition at 0.1 µM was 45%. In assay [2] (4.8 and 10.2 mg/kg/day versus tolrestat 4 and 11 mg/kg/day), the “results compared with tolrestat (in words)” value was “comparable results”. The “% lowering dulcitol accumulation in vivo, D” value stood at 58% in assay [2] (diaphragm, 4.8 mg/kg/day in diet); 72% in assay [2] (diaphragm, 10.2 mg/kg/day in diet); 75% in assay [2] (diaphragm, 20.7 mg/kg/day in diet); 81% in assay [2] (setting [6]); 87% in assay [2] (diaphragm, 101 mg/kg/day in diet). For the same compound, the “% lowering dulcitol accumulation in vivo, L” value in assay [2] (lens, 10.2 mg/kg/day in diet) worked out at 18%; in assay [2] (lens, 20.7 mg/kg/day in diet), 36%; in assay [2] (lens, 23 mg/kg/day in diet), 44%; in assay [2] (lens, 101 mg/kg/day in diet), 79%. Moreover, the ED50 is 2 mg/kg in assay [2] (setting [4]) and 8.1 mg/kg in assay [2] (setting [5]).

As to `O=C1CN(S(=O)(=O)c2ccc(Br)c3ccccc23)C(=S)N1` [Example 3, 1-[(4-bromo-1-naphthalenyl)sulfonyl]-2-thioxo-4-imidazolidinone], the inhibition at 10 µM in assay [1] (10^-5) was 53%. In addition, the inhibition at 1 µM in assay [1] (10^-6) is 15%.

Regarding `O=C1CN(S(=O)(=O)c2ccc(Br)c3ccccc23)C(=O)N1` [Example 4, 1-[(4-bromo-1-naphthalenyl)sulfonyl]-2,4-imidazolidinedione], in assay [1] (10^-5), the inhibition at 10 µM came to 92%. Also, the inhibition at 1 µM in assay [1] (10^-6) was found to be 81%. Moreover, in assay [1] (10^-7), the inhibition at 0.1 µM is 31%. Moreover, the “% lowering dulcitol accumulation in vivo, D” value in assay [2] (setting [3]) is reported as 27%.

As to `COc1ccc2c(S(=O)(=O)N3CC(=O)NC3=S)cccc2c1C(F)(F)F` [Example 5, 1-[[6-methoxy-5-(trifluoromethyl)-1-naphthalenyl]sulfonyl]-2-thioxo-4-imidazolidinone], in assay [1] (10^-6), the inhibition at 1 µM turned out to be 15%. Also, in assay [1], the inhibition at 10 µM is 40%.

With `COc1ccc2c(S(=O)(=O)N3CC(=O)NC3=O)cccc2c1C(F)(F)F` [Example 6, 1-[[6-Methoxy-5-(trifluoromethyl)-1-naphthalenyl]sulfonyl]-2,4-imidazolidinedione], in assay [1] (10^-6), the inhibition at 1 µM is 84%. The inhibition at 0.1 µM in assay [1] (10^-7) was 43%. For the same compound, the inhibition at 10 µM in assay [1] amounted to 86%. Also, in assay [2] (diaphragm, 86 mg/kg/day in diet, p < 0.01), the “% lowering dulcitol accumulation in vivo, D” value came to 87%. The “% lowering dulcitol accumulation in vivo, L” value in assay [2] (lens, 86 mg/kg/day in diet, p < 0.01) was 60%.

Turning to `CN(C)c1cccc2c(S(=O)(=O)N3CC(=O)NC3=S)cccc12` [Example 7, 1-[[5-(dimethylamino)-1-naphthalenyl]sulfonyl]-2-thioxo-4-imidazolidinone], the inhibition at 10 µM in assay [1] (10^-5) stood at 58%. In addition, the inhibition at 1 µM in assay [1] (10^-6) is 12%.

With `CN(C)c1cccc2c(S(=O)(=O)N3CC(=O)NC3=O)cccc12` [Example 8, 1-[[5-(Dimethylamino)-1-naphthalenyl]sulfonyl]-2,4-imidazolidinedione], the inhibition at 1 µM in assay [1] (10^-6) stood at 83%. In assay [1], the inhibition at 0.1 µM was found to be 38% and the inhibition at 10 µM stood at 96%.

On to `O=C1CN(S(=O)(=O)c2cccc3ccccc23)C(=S)N1` [Example 9, 1-[(1-Naphthalenyl)sulfonyl]-2-thioxo-4-imidazolidinone], for which the inhibition at 10 µM in assay [1] (10^-5) was 17%.

With `O=C1CN(S(=O)(=O)c2cccc3ccccc23)C(=O)N1` [Example 10, 1-[(1-Naphthalenyl)sulfonyl]-2,4-imidazolidinedione], the inhibition at 10 µM in assay [1] (10^-5) was 89%. The inhibition at 1 µM in assay [1] (10^-6) was determined as 59%. Further, the inhibition at 0.1 µM in assay [1] (10^-7) was 14%. In addition, in assay [2] (setting [6]), the “% lowering dulcitol accumulation in vivo, D” value worked out at 31%. Besides, in assay [2] (lens, 23 mg/kg/day in diet), the “% lowering dulcitol accumulation in vivo, L” value amounted to 10%.

In the case of `O=C1CN(S(=O)(=O)c2cccc3cc(Br)ccc23)C(=S)N1` [Example 11, 1-[(6-bromo-1-naphthalenyl)sulfonyl]-2-thioxo-4-imidazolidinone], the inhibition at 10 µM in assay [1] (10^-5) came to 10%. In addition, the inhibition at 1 µM in assay [1] (10^-6) is 9%.

For `O=C1CN(S(=O)(=O)c2cccc3cc(Br)ccc23)C(=O)N1` [Example 12, 1-[(6-bromo-1-naphthalenyl)sulfonyl]-2,4-imidazolidinedione], the inhibition at 10 µM in assay [1] (10^-5) was 89%. For the same compound, the inhibition at 1 µM in assay [1] (10^-6) came out at 70%. Also, in assay [1] (10^-7), the inhibition at 0.1 µM amounted to 23%. Besides, the “% lowering dulcitol accumulation in vivo, D” value in assay [2] (setting [3]) is 0%. Also, the “% lowering dulcitol accumulation in vivo, L” value in assay [2] (lens, 24 mg/kg/day in diet) is 0%.

With `O=C1CN(S(=O)(=O)c2cccc3ccc(Br)cc23)C(=S)N1` [Example 13, 1-[(7-bromo-1-naphthalenyl)sulfonyl]-2-thioxo-4-imidazolidinone], in assay [1] (10^-6), the inhibition at 1 µM came out at 16%. In addition, the inhibition at 10 µM in assay [1] is 46%.

For the compound `O=C1CN(S(=O)(=O)c2cccc3ccc(Br)cc23)C(=O)N1` [Example 14, 1-[(7-bromo-1-naphthalenyl)sulfonyl]-2,4-imidazolidinedione], in assay [1] (10^-7), the inhibition at 0.1 µM was determined as 36%. For the same compound, in assay [1], the inhibition at 1 µM turned out to be 79% and the inhibition at 10 µM turned out to be 93%. For the same compound, the “% lowering dulcitol accumulation in vivo, D” value in assay [2] (setting [6]) worked out at 50%. Further, the “% lowering dulcitol accumulation in vivo, L” value in assay [2] (lens, 23 mg/kg/day in diet) is listed as 0%.

`O=C1CN(S(=O)(=O)c2cccc3c(Cl)cccc23)C(=S)N1` [Example 15, 1-[(5-chloro-1-naphthalenyl)sulfonyl]-2-thioxo-4-imidazolidinone]: the inhibition at 10 µM in assay [1] (10^-5) came to 43%. Also, the inhibition at 1 µM in assay [1] (10^-6) amounted to 14%.

For the compound `O=C1CN(S(=O)(=O)c2cccc3c(Cl)cccc23)C(=O)N1` [Example 16, 1-[(5-chloro-1-naphthalenyl)sulfonyl]-2,4-imidazolidinedione], the inhibition at 10 µM in assay [1] (10^-5) stood at 85%. Also, in assay [1] (10^-7), the inhibition at 0.1 µM was determined as 36%. Moreover, the inhibition at 1 µM in assay [1] stood at 79%. Moreover, the “% lowering dulcitol accumulation in vivo, D” value in assay [2] (diaphragm, 25 mg/kg/day in diet) came out at 82%. Further, in assay [2] (lens, 25 mg/kg/day in diet), the “% lowering dulcitol accumulation in vivo, L” value amounted to 44%.

Consider `O=C1CN(S(=O)(=O)c2cccc3c(I)cccc23)C(=S)N1` [Example 17, 1-[(5-iodo-1-naphthalenyl)sulfonyl]-2-thioxo-4-imidazolidinone], for which, in assay [1] (10^-5), the inhibition at 10 µM stood at 58%. Besides, the inhibition at 1 µM in assay [1] (10^-6) was 24%. The “% lowering dulcitol accumulation in vivo, D” value in assay [2] (diaphragm, 26 mg/kg/day in diet) is listed as 34.0%. Also, the “% lowering dulcitol accumulation in vivo, L” value in assay [2] (lens, 26 mg/kg/day in diet) is 0.0%.

Take `O=C1CN(S(=O)(=O)c2cccc3c(I)cccc23)C(=O)N1` [Example 18, 1-[(5-iodo-1-naphthalenyl)sulfonyl]-2,4-imidazolidinedione]: the inhibition at 0.1 µM in assay [1] (10^-7) came out at 59%. The “% lowering dulcitol accumulation in vivo, D” value in assay [2] (setting [3]) is 74.0%. Also, the “% lowering dulcitol accumulation in vivo, L” value in assay [2] (lens, 24 mg/kg/day in diet) amounted to 33%.

Regarding `O=C1CN(S(=O)(=O)c2ccc3c(Br)cccc3c2)C(=S)N1` [Example 19, 1-[(5-Bromo-2-naphthalenyl)sulfonyl]-2-thioxo-4-imidazolidinone], the inhibition at 10 µM in assay [1] (10^-5) stood at 13%. Moreover, the inhibition at 1 µM in assay [1] (10^-6) turned out to be 9%.

As for `O=C1CN(S(=O)(=O)c2ccc3c(Br)cccc3c2)C(=O)N1` [Example 20, 1-[(5-Bromo-2-naphthalenyl)sulfonyl]-2,4-imidazolidinedione], the inhibition at 10 µM in assay [1] (10^-5) worked out at 89%. Further, the inhibition at 1 µM in assay [1] (10^-6) is 77%. Besides, the inhibition at 0.1 µM in assay [1] (10^-7) is 24%. Moreover, the “% lowering dulcitol accumulation in vivo, L” value in assay [2] (lens, 24 mg/kg/day in diet) is recorded as “N.S”.

`COc1ccc2c(C(=S)N(C)CC(=O)O)cccc2c1C(F)(F)F` [tolrestat, N-[[6-methoxy-5-(trifluoromethyl)-1-naphthalenyl]thioxomethyl]-N-methylglycine, reference compound]: in assay [2] (rat, in vivo, 11 mg/kg/day), the “% lowering dulcitol accumulation in vivo, D” value was 89.
